# Data as given in patent US20090275655A1, “Pharmaceutical Gallium Compositions and Methods” (priority 2008, published 2009).
# Assay: intravenous infusion in a cystic fibrosis patient, concentration of ionic gallium in sputum, plasma and whole blood
# Assay type: in vivo, human patient
# Experimental: During one such treatment, this patient received an infusion of gallium citrate-nitrate over 5 days at a dose of 240 mg/day, or approximately 150 mg/m^2/day, and the concentration of ionic gallium in a deep-cough sputum specimen was then measured. The gallium concentration in the sputum was 3.2 μg/ml, or approximately 46 μmol/L, which is a concentration that is adequate to kill resistant Pseudomonas organisms in vivo. See Kaneko et al., J. Clin. Invest. 117:877-888 (2007).
# Beginning about 1 month later, the same patient from Example 4 was given additional infusions of gallium citrate-nitrate at doses of 200 mg/m^2/day over 5 days, and the concentration of ionic gallium in deep-cough sputum specimens was again determined. […] The concentrations at days 5-11 are high, and even after cessation of treatment they remain levels that are believed to be therapeutic in vivo.
# [1] = Treatment Number Two, 200 mg/m^2/d, end of infusion, Day 5 (verification repeat)
substance,measurement,setting,value
gallium citrate-nitrate,"gallium concentration, Sputum","Treatment Number One, 150 mg/m^2/d, end of infusion, Day 5",2.22 µg/mL
same,"gallium concentration, Sputum","Treatment Number Two, 200 mg/m^2/d, end of infusion, Day 5",2.13 µg/mL
same,"gallium concentration, Whole Blood","Treatment Number Two, 200 mg/m^2/d, end of infusion, Day 5 20:00 h",1.64 µg/mL
same,"gallium concentration, Plasma",[1],1.35 µg/mL
same,"gallium concentration, Sputum",[1],2.65 µg/mL
same,"gallium concentration, Sputum","Treatment Number Two, Baseline (Time 0), one month after Treatment One",0.32 µg/mL
same,"gallium concentration, Sputum","Treatment Number Two, Post-Infusion, Day 6",1.83 µg/mL
same,"gallium concentration, Sputum","Treatment Number Two, Post-Infusion, Day 7",2.04 µg/mL
same,"gallium concentration, Sputum","Treatment Number Two, Post-Infusion, Day 9",4.35 µg/mL
same,"gallium concentration, Sputum","Treatment Number Two, Post-Infusion, Day 11",4.78 µg/mL
same,sputum levels exceed plasma concentrations,"patient, following systemic (IV) administration",roughly 2 fold
